Results on one compound are retold here after patent US20240092803A1, “BRIDGED COMPOUNDS AS KRAS G12D INHIBITOR AND DEGRADER AND THE USE THEREOF” (BEIGENE SWITZERLAND GMBH, priority 2021, published 2024).

Experiment [1] addresses KRAS G12D protein level in AsPC-1 cells (Homo sapiens (Human), UniProt P01116, G12D). In words: Western blotting assay in AsPC-1 cells. The conditions noted are these: 3 uM, 48 h compound treatment, Western blot. In kind it is cell-based. The method, then: AsPC-1 cell line was used in this study. Cells were maintained in RPMI-1640 supplemented 10% fetal bovine serum (Thermo Fisher), 50 units/mL penicillin and streptomycin (Thermo Fisher) and kept at 37° C. In a humidified atmosphere of 5% CO2 in air. Cells were reinstated from frozen stocks that were laid down within 30 passages from the original cells purchased. 400000 AsPC-1 cells per well in 1 mL culture medium were seed in the 12-well plate for 4 hours. Cells were treated with an appropriate dilution series of compounds. After 48h compound treatment, medium was aspirated, the cells were washed with PBS, and then 30 μL of 1× protein lysis buffer (Cell Signaling Technology) containing protease inhibitors (Merck) and phosphatase inhibitors (Sigma) was added. The cells were lysed, and after centrifugation, the supernatants were quantified by BCA Protein assay Kit (Thermo Fisher). 4× loading Buffer (Thermo Fisher) was added to equal amounts of total protein from each sample and heated at 95° C. for 5 minutes. […]

The target of experiment [2] is KRAS G12D HiBiT in HEK293 KRAS-G12D NanoLuc cell pool (Homo sapiens (Human), UniProt P01116, G12D). Description: KRAS G12D NanoLuc assay. The conditions noted are these: 24 h compound treatment. Type of experiment: cell-based. The procedure: HEK293 KRAS-G12D NanoLuc cell pool was used in this study. The cells were stable expressing KRAS G12D HiBiT and LgBiT. Cells were maintained in DMEM supplemented with 10% fetal bovine serum (Thermo Fisher), 50 units/mL penicillin and streptomycin (Thermo Fisher) and kept at 37° C. in a humidified atmosphere of 5% CO2 in air. Cells were reinstated from frozen stocks that were laid down within 30 passages from the cell pool was constructed. 20000 cells per well were seeded a 96-well White with Clear Flat bottom plate for 4 h. Cells were treated with a 10-point dilution series. The final compound concentration is from 0 to 10 μM. After 24 h compound treatment, added 20 μL of CellTiter-Fluor reagent (Promega) to plates, shook for 2 min, incubated at least 30 min in 37° C. Added 25 μL of NanoGlo Live cell reagent (Promega) to the same plate. shook by mini-shaker for 5 min. Measure Luminescence and Fluorescence (380-400nmEx/505nmEm) signals immediately using a PHERAstar FSX reader (BMG Labtech). DC50 determination was performed by fitting the curve of percent inhibition versus the log of the inhibitor concentration using Excel and GraphPad Prism 8.

Each structure is given as a SMILES string.

Regarding `Cc1ncsc1-c1ccc([C@H](C)NC(=O)[C@@H]2C[C@@H](O)CN2C(=O)[C@@H](NC(=O)CCOCCCN2CCC[C@H]2COc2nc3c(c(N4CC5CCC(C4)N5)n2)CCN(c2cccc4cccc(Cl)c24)C3)C(C)(C)C)cc1` [Example 17], the “KRAS G12D protein level decrease” value in experiment [1] was 40%. Also, in experiment [2], the DC50 was 708 nM and the Dmax came out at 80%.
